Patent publication US20170050957A1, “4-AMINO-6-(HETEROCYCLIC)PICOLINATES AND 6-AMINO-2-(HETEROCYCLIC)PYRIMIDINE-4-CARBOXYLATES AND THEIR USE AS HERBICIDES” (Dow AgroSciences LLC, priority 2013, published 2017)
Read-outs that look alike come from different tables or passages of the source.

Assays:
[1] = test system: Key Broadleaf Weed and Crop Species; assay: Post-emergent Test II herbicidal activity (Table 15); format: in vivo; settings: post-emergence, 336 h, 14 d; for pest or weed control at 35 g/ha: 35 g ai/ha; for pest or weed control at 70 g/ha: 70 g ai/ha; for pest or weed control at 140 g/ha: 140 g ai/ha
Outline: (§1)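 Greenhouse-grown seedlings at first/second true leaf receive a track spray at 187 L/ha, using a highest rate plus two-fold serial dilutions down to 1/16×. Watering is by subirrigation to avoid wash-off. Percent injury (0-100) is judged by eye at 14 d against untreated plants.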

[2] = test system: Key Grass and Sedge Weeds as well as Grass Crops; assay: Post-emergent Test II herbicidal activity (Table 16); format: in vivo; settings: post-emergence, 336 h, 14 d; for pest or weed control at 35 g/ha: 35 g ai/ha; for pest or weed control at 70 g/ha: 70 g ai/ha; for pest or weed control at 140 g/ha: 140 g ai/ha
Outline: as §1

[3] = Abutilon theophrasti, velvetleaf (Abutilon theophrasti), read-out: Visual Growth Reduction (%) 14 Days After Application, ABUTH
[4] = Amaranthus retroflexus, redroot pigweed (Amaranthus retroflexus), read-out: Visual Growth Reduction (%) 14 Days After Application, AMARE
[5] = Brassica napus, oilseed rape, canola (Brassica napus), read-out: Visual Growth Reduction (%) 14 Days After Application, BRSNN
[6] = Chenopodium album, lambsquarters (Chenopodium album), read-out: Visual Growth Reduction (%) 14 Days After Application, CHEAL
[7] = Euphorbia heterophylla, wild poinsettia (Euphorbia heterophylla), read-out: Visual Growth Reduction (%) 14 Days After Application, EPHHL
[8] = Helianthus annuus, sunflower (Helianthus annuus), read-out: Visual Growth Reduction (%) 14 Days After Application, HELAN
[9] = Cyperus esculentus, yellow nutsedge (Cyperus esculentus), read-out: Visual Growth Reduction (%) 14 Days After Application, CYPES
[10] = Echinochloa crus-galli, barnyardgrass (Echinochloa crus-galli), read-out: Visual Growth Reduction (%) 14 Days After Application, ECHCG
[11] = Oryza sativa, rice (Oryza sativa), read-out: Visual Growth Reduction (%) 14 Days After Application, ORYSA
[12] = Triticum aestivum, wheat, spring (Triticum aestivum), read-out: Visual Growth Reduction (%) 14 Days After Application, TRZAS
[13] = Zea mays, maize, corn (Zea mays), read-out: Visual Growth Reduction (%) 14 Days After Application, ZEAMX
[14] = Setaria faberi, giant foxtail (Setaria faberi), read-out: Visual Growth Reduction (%) 14 Days After Application, SETFA

SMILES	melting point [°C]	pest or weed control at 35 g/ha [1, 3] [%]	pest or weed control at 70 g/ha [1, 3] [%]	pest or weed control at 140 g/ha [1, 3] [%]	pest or weed control at 35 g/ha [1, 4] [%]	pest or weed control at 70 g/ha [1, 4] [%]	pest or weed control at 140 g/ha [1, 4] [%]	pest or weed control at 35 g/ha [1, 5] [%]	pest or weed control at 70 g/ha [1, 5] [%]	pest or weed control at 140 g/ha [1, 5] [%]	pest or weed control at 35 g/ha [1, 6] [%]	pest or weed control at 70 g/ha [1, 6] [%]	pest or weed control at 140 g/ha [1, 6] [%]	pest or weed control at 35 g/ha [1, 7] [%]	pest or weed control at 70 g/ha [1, 7] [%]	pest or weed control at 140 g/ha [1, 7] [%]	pest or weed control at 35 g/ha [1, 8] [%]	pest or weed control at 70 g/ha [1, 8] [%]	pest or weed control at 140 g/ha [1, 8] [%]	pest or weed control at 35 g/ha [2, 9] [%]	other results
COC(=O)c1nc(-c2ccc(Cl)c3occc23)cc(N)c1Cl [Compound 2.19]	158 to 159	95 to 100	95 to 100	95 to 100	95 to 100	95 to 100	95 to 100	0 to 29	60 to 74	60 to 74	95 to 100	95 to 100	95 to 100	0 to 29	0 to 29	0 to 29	0 to 29	75 to 84	75 to 84	0 to 29	pest or weed control at 70 g/ha [2, 9]: 0 to 29%; pest or weed control at 140 g/ha [2, 9]: 0 to 29%; pest or weed control at 35 g/ha [2, 10]: 0 to 29%; pest or weed control at 70 g/ha [2, 10]: 0 to 29%; pest or weed control at 140 g/ha [2, 10]: 0 to 29%; pest or weed control at 35 g/ha [2, 11]: 0 to 29%; pest or weed control at 70 g/ha [2, 11]: 0 to 29%; pest or weed control at 140 g/ha [2, 11]: 0 to 29%; pest or weed control at 35 g/ha [2, 12]: 0 to 29%; pest or weed control at 70 g/ha [2, 12]: 0 to 29%; pest or weed control at 140 g/ha [2, 12]: 0 to 29%; pest or weed control at 35 g/ha [2, 13]: 0 to 29%; pest or weed control at 70 g/ha [2, 13]: 0 to 29%; pest or weed control at 140 g/ha [2, 13]: 0 to 29%
COc1c(N)nc(-c2ccc(Cl)c3occc23)nc1C(=O)O [Compound 2.22]	204 to 206	30 to 44	30 to 44	45 to 59	95 to 100	95 to 100	95 to 100	0 to 29	45 to 59	60 to 74	95 to 100	95 to 100	95 to 100	0 to 29	0 to 29	0 to 29	75 to 84	85 to 94	95 to 100	0 to 29	pest or weed control at 70 g/ha [2, 9]: 0 to 29%; pest or weed control at 140 g/ha [2, 9]: 0 to 29%; pest or weed control at 35 g/ha [2, 10]: 0 to 29%; pest or weed control at 70 g/ha [2, 10]: 0 to 29%; pest or weed control at 140 g/ha [2, 10]: 0 to 29%; pest or weed control at 35 g/ha [2, 11]: 0 to 29%; pest or weed control at 70 g/ha [2, 11]: 0 to 29%; pest or weed control at 140 g/ha [2, 11]: 0 to 29%; pest or weed control at 35 g/ha [2, 14]: 0 to 29%; pest or weed control at 70 g/ha [2, 14]: 0 to 29%; pest or weed control at 140 g/ha [2, 14]: 0 to 29%; pest or weed control at 35 g/ha [2, 12]: 0 to 29%; pest or weed control at 70 g/ha [2, 12]: 0 to 29%; pest or weed control at 140 g/ha [2, 12]: 0 to 29%; pest or weed control at 35 g/ha [2, 13]: 0 to 29%; pest or weed control at 70 g/ha [2, 13]: 0 to 29%; pest or weed control at 140 g/ha [2, 13]: 0 to 29%
